One series deals with TAAR1. The series can be described thus: PBK modelling-based reverse dosimetry of in vitro EC50 to ED50, TAAR1. As to conditions: predicted human oral ED50 from in vitro EC50 (Pinckaers et al. [2024]) and modelled Cmax plasma venous. Also noted: species or system human. The text has this: (§1) The in vitro effect concentrations (EC50), for activation of the α1A, α1B, α1D, α2A, α2B, β1 and β2 ADR activation and the activation of TAAR1, were obtained from our previous study (Pinckaers et al. [2024]).

For a further series, the system named is ADRα1A. Kind of series: PBK modelling-based reverse dosimetry of in vitro EC50 to ED50, ADRα1A. As to conditions: predicted human oral ED50 from in vitro EC50 (Pinckaers et al. [2024]) and modelled Cmax plasma venous.
Text: as §1

The subject of a further series is ADRα2A. Kind of series: PBK modelling-based reverse dosimetry of in vitro EC50 to ED50, ADRα2A. The settings on record: predicted human oral ED50 from in vitro EC50 (Pinckaers et al. [2024]) and modelled Cmax plasma venous.
Text: as §1

Another series relates to ADRα1D. The series can be described thus: PBK modelling-based reverse dosimetry of in vitro EC50 to ED50, ADRα1D. The settings on record: predicted human oral ED50 from in vitro EC50 (Pinckaers et al. [2024]) and modelled Cmax plasma venous.
Text: as §1

Series [1] deals with ADRβ1. The series can be described thus: PBK modelling-based reverse dosimetry of in vitro EC50 to ED50, ADRβ1. Also noted: species or system human. The settings on record: predicted human oral ED50 from in vitro EC50 (Pinckaers et al. [2024]) and modelled Cmax plasma venous.
Series [2] is described as follows: In vitro hepatic clearance by human liver S9 (compound depletion). Type of series: in vitro ADME. The settings on record: for Predicted intrinsic hepatic metabolic clearance CLmet: CLint,u scaled to a whole liver, 121 mg HLS9/g liver; for Predicted intrinsic hepatic metabolic clearance CLmet / k el at 1 µM / microsomal CLint at 1 µM: human; for k el at 1 µM: pH 7.4, full reaction mix (HLS9 and co-factor mix), HLS9 concentration per compound (0.10-2 mg/mL), read-out: elimination rate constant k (converted). The protocol: In vitro intrinsic hepatic clearance (CLint) values of the phenethylamine analogues were determined in experiments with pooled human liver S9 (HLS9; Corning, Woburn, MA, USA and Gibco, USA), by measuring the rate of compound depletion. Stocks of 1 mM PEA compounds were prepared in DMSO and stocks of 10 mg/mL alamethicin were prepared in methanol. The final incubation mixtures consisted of 1 µM of PEA compound (0.1% DMSO) in 100 mM potassium phosphate buffer with 5 mM magnesium chloride (pH 7.4) supplemented with 0.025 mg/mL alamethicin (0.25% methanol) and 0.1–2 mg/mL HLS9. […] Incubation mixtures were first pre-incubated at 37 °C in a shaking incubator at 300 rpm for 5 min. After 5 min, the reaction was initiated by adding a co-factor mix in supplemented buffer with final concentrations of 3 mM nicotinamide adenine dinucleotide phosphate (NADPH; for oxidation, reduction and hydrolysis), 5 mM uridine diphosphate glucuronic acid (UDPGA; for glucuronidation), 0.2 mM adenosine 3’-phosphate 5’-phosphosulfate lithium salt hydrate (PAPS; for sulfation) and 0.2 mM S-(5’-Adenosyl)-L-methionine p-toluenesulfonate salt (SAM; for methylation). The final incubation volume was 100 µL and incubations were performed in 1.5 mL Safe-Lock Eppendorf tubes (Eppendorf) in a shaking incubator (300 rpm) at 37 °C (Eppendorf Thermomixer). Incubations were terminated by adding 100 µL ice-cold acetonitrile after, 0, 2.5, 5, 10, 20, 40 and 60 min. Then, samples were vortexed, put on ice and stored at -20 °C until the day of the LC–MS/MS analysis. Controls of incubation mixtures without HLS9 or mixtures without co-factors were also included. Two independent experiments, both in duplicate, were performed on different days. On the day of the LC–MS/MS analysis, samples were thawed and centrifuged at 15,000 rpm for 10 min. The supernatant was collected in glass insert vials for LC injection (BGB Analytik, Harderwijk, The Netherlands). Details on the methods of the LC–MS/MS analysis are described in Sect. "LC–MS/MS analysis". After determining the PEA (analogue) amount at the different time points, the CLint was calculated. The natural logarithm of compound concentrations was plotted against time and the slope of this curve represented the elimination rate constant k (in 1/min). The half-life (t1/2 in minutes) was calculated by: ln (2)/k (in 1/min). The volume of incubation (V) in µL/mg protein was determined by: 1000 / HLS9 concentration (in mg/mL). Finally, CLint could be calculated by: CLintμL/min/mg protein=VμL/mg protein∗ln2/t1/2min.
The fraction unbound in these in vitro liver clearance incubations was calculated with the method of (Hallifax and Houston [2006]) in which unspecific binding in HLS9 incubations was assumed to be the same as in liver microsomal incubations. The in vitro obtained HLS9 CLint values were corrected for protein binding in the HLS9 incubation and were scaled to a whole liver by using a scaling factor of 121 mg HLS9/g liver (Houston and Galetin [2008]).

For series [3] the following is noted: human, t = 0.70 h, escalating intravenous infusion 0.5, 1, 2, 4 µg/kg bw/min, 3 min each; ref Feng et al. [2012]; cited from earlier work.
The test system of series [4] is ADRβ1. Also noted: method as in Pinckaers et al. [2024]. As to conditions: in vitro ADRβ1 activation assays, Fig. 6E; ref Pinckaers et al. [2024]; cited from earlier work.
The nature of series [5]: Generic human PBK model with oral dosing, simulated venous plasma concentration. The settings on record: oral dose of 5.7 mg/kg bw, observed data of Rafehi et al. [2019]. The text has this:
The PBK model codes used in this study are presented in the Supplementary data. For the prediction of internal concentrations of the PEA analogues a generic PBK model for humans with oral dosing was used. The PBK model code was adopted from (Jones and Rowland-Yeo [2013]). In general, the body compartments described in the model are: adipose, bone, brain, gut, heart, kidney, liver, lung, muscle, skin, spleen, testes, venous, arterial, plasma and a rest compartment. The concentrations in these compartments were modelled as blood-flow limited, in which it is assumed that the total concentration in the tissue is in equilibrium with the concentration in the systemic circulation at a steady state. The concentration in the circulation is compound-specific and is based on the plasma partition coefficients. The blood flow rate, the tissue volume and the plasma partition coefficients determine the rate of reaching the steady-state (Jones and Rowland-Yeo [2013]). The model was converted to RStudio (version 2023.12.1 Build 402, “Ocean Storm Release”) solving the differential equations with the R rxode2 package (with tidyverse packages). Cliver free was defined as Cliver/Kp liver * Fup instead of Cliver* Fup. […]

For series [6] the following is noted: human; ref Faraj et al. [1979]; cited from earlier work.
Where [7] appears, read: s9, pH 7.4, CLint app corrected for unspecific protein (HLS9) binding, read-out: In vitro CLint,u.
Where [8] appears, read: s9, pH 7.4, human liver S9 with co-factor mix (NADPH, UDPGA, PAPS, SAM), 1 µM, read-out: In vitro CLint app.

Read-outs that look alike come from different tables or passages of the source.

Turning to `Oc1ccc(CC2NCCc3cc(O)c(O)cc32)cc1` (stereo not shown) [Higenamine, higenamine], the “TAAR1 ED50” value in the series on TAAR1 is 6.09 mg/kg bw. In addition, the “ADRα1A ED50” value in the series on ADRα1A is “– (compounds with a dash (-) did not activate the receptors in vitro at concentrations ≤ 300 µM)”. In addition, in the series on ADRα2A, the “ADRα2A ED50” value is recorded as “– (compounds with a dash (-) did not activate the receptors in vitro at concentrations ≤ 300 µM)”. For the same compound, in the series on ADRα1D, the “ADRα1D ED50” value is listed as “– (compounds with a dash (-) did not activate the receptors in vitro at concentrations ≤ 300 µM)”. In the series on ADRβ1 [1], the “ADRβ1 ED50” value was 0.211 mg/kg bw. The “Predicted intrinsic hepatic metabolic clearance CLmet” value in series [2] is 261 L/h. Also, the k el at 1 µM in series [2] (1 µM) was 0.000367 s⁻¹. The microsomal CLint at 1 µM came out at 24.4 µL/min/mg in series [2] (setting [7]) and 22 µL/min/mg in [2] (setting [8]). Moreover, the “observed average plasma concentration” value in [3] is on record as 0.5 ng/mL. For the same compound, the “in vitro potency, times more potent than isopropyloctopamine” value in the series with ADRβ1 [4] is 3.5 times.

`NCCc1ccc(O)cc1` [Tyramine, tyramine]: in the series on TAAR1, the “TAAR1 ED50” value is 34.7 mg/kg bw. In addition, in the series with ADRα1A, the “ADRα1A ED50” value is given as “– (compounds with a dash (-) did not activate the receptors in vitro at concentrations ≤ 300 µM)”. Also, the “ADRα2A ED50” value in the series on ADRα2A is listed as “– (compounds with a dash (-) did not activate the receptors in vitro at concentrations ≤ 300 µM)”. Further, the “over-prediction of the Cmax plasma compared to the observed average” value in series [5] is on record as 3.78 fold. In the series with ADRα1D, the “ADRα1D ED50” value was “– (compounds with a dash (-) did not activate the receptors in vitro at concentrations ≤ 300 µM)”. In addition, the “Predicted intrinsic hepatic metabolic clearance CLmet” value in [2] was 841 L/h. In addition, the “metabolism in incubations without co-factor mix” value in [2] (HLS9 without co-factor mix) was “metabolized in incubations without co-factor mix”. Besides, the k el at 1 µM in series [2] (1 µM) is 0.000322 s⁻¹. Further, the microsomal CLint at 1 µM was 78.8 µL/min/mg in series [2] (setting [7]) and 77.2 µL/min/mg in [2] (setting [8]). For the same compound, in [6], the “metabolic clearance observed in humans” value was 792 L/h.
